Experimental data taken from patent US20260207569A1, “LPA1 ANTAGONISTS FOR TREATING INTERSTITIAL LUNG DISEASE” (Bristol-Myers Squibb Company, priority 2022, published 2026).

Assay: Phase 2 PPF cohort safety: adverse events, prespecified asymptomatic or symptomatic blood pressure reduction criteria, dose reductions
Assay type: in vivo, human
Conditions: PPF
Description: A total of 123 participants with PPF were randomized. Participants (age ≥21 years) were randomized (1:1:1) to receive 30 mg or 60 mg Compound A or PBO twice daily for 26 weeks. […] Immunosuppressive medications (mycophenolate mofetil, mycophenolic acid, azathioprine and/or tacrolimus) were permitted only if dosing is stable for ≥6 months prior to screening. If receiving antifibrotic agents pirfenidone or nintedanib, patients had to receive a stable dosage for ≥3 months prior to screening and during the screening period; if not receiving pirfenidone or nintedanib, patients had to be naive to both drugs or not have received either 4 weeks prior to Day 1. A total of 47 (38.2%) subjects were receiving antifibrotic treatment (with or without immunosuppression therapy). Of those subjects, 34 were being treated with nintedanib and 13 with pirfenidone. Participants were stratified by usual interstitial pneumonia (UIP) pattern (presence versus absence) and background therapy (antifibrotics +/−ILD-targeted immunosuppression versus ILD-targeted immunosuppression alone versus none). UIP pattern was present in 52% of subjects and unclassifiable ILD was he most common disease categorization.
Patient is experiencing any of the following, confirmed by retest within 15 minutes: • Seated systolic blood pressure <85 mmHg • Seated diastolic blood pressure <55 mmHg • Orthostatic hypotension
Patient is experiencing symptoms that, in the investigator's opinion, could be associated with a reduction in blood pressure and is also experiencing at least one of the following, confirmed by retest within 15 minutes: • Seated systolic blood pressure <100 mmHg or seated diastolic blood pressure <60 mmHg • Decrease of seated systolic blood pressure of ≥20 mmHg from the previous visit or decrease of seated diastolic blood pressure of ≥10 mmHg from the previous visit • Orthostatic hypotension • Orthostatic tachycardia

CCCN(C)C(=O)OCc1c(-c2ccc(O[C@H]3CCC[C@H](C(=O)O)C3)c(C)n2)nnn1C [Compound A, (1S,3S)-3-((2-methyl-6-(1-methyl-5-(((methyl(propyl)carbamoyl)-oxy)methyl)-1H-1,2,3-triazol-4-yl)pyridin-3-yl)oxy)cyclohexane-1-carboxylic acid]
Deaths due to TEAEs, no. (30 mg BID (n = 40)): 0
Diarrhea, % (30 mg BID (n = 40)): (15.0) %
Diarrhea, no. (30 mg BID (n = 40)): 6
Discontinuations due to TEAEs, % (30 mg BID (n = 40)): (2.5) %
Discontinuations due to TEAEs, no. (30 mg BID (n = 40)): 1
Dizziness, no. (30 mg BID (n = 40)): 0
Dyspnea, % (30 mg BID (n = 40)): (5.0) %
Dyspnea, no. (30 mg BID (n = 40)): 2
Hypertension, no. (30 mg BID (n = 40)): 0
Hypotension, % (30 mg BID (n = 40)): (10.0) %
Hypotension, no. (30 mg BID (n = 40)): 4
Nausea, % (30 mg BID (n = 40)): (10.0) %
Nausea, no. (30 mg BID (n = 40)): 4
Orthostatic hypotension, % (30 mg BID (n = 40)): (5.0) %
Orthostatic hypotension, no. (30 mg BID (n = 40)): 2
Patients with ≥1 TEAE related to study drug, no. (30 mg BID (n = 40)): 7
Patients with ≥1 TEAE, no. (30 mg BID (n = 40)): 33
Patients with ≥1 TESAE, no. (30 mg BID (n = 40)): 4
Rash, % (30 mg BID (n = 40)): (7.5) %
Rash, no. (30 mg BID (n = 40)): 3
Vomiting, % (30 mg BID (n = 40)): (7.5) %
Vomiting, no. (30 mg BID (n = 40)): 3
Orthostatic hypotension (asymptomatic and symptomatic) vs other groups (60 mg BID): higher in the 60 mg group than for other groups
COVID-19, % (60 mg BID (n = 42)): (14.3) %
COVID-19, no. (60 mg BID (n = 42)): 6
Cough, % (60 mg BID (n = 42)): (11.9) %
Cough, no. (60 mg BID (n = 42)): 5
Deaths due to TEAEs, no. (60 mg BID (n = 42)): 0
Diarrhea, % (60 mg BID (n = 42)): (7.1) %
Diarrhea, no. (60 mg BID (n = 42)): 3
Discontinuations due to TEAEs, no. (60 mg BID (n = 42)): 0
Dizziness, % (60 mg BID (n = 42)): (9.5) %
Dizziness, no. (60 mg BID (n = 42)): 4
Dyspnea, no. (60 mg BID (n = 42)): 0
Hypertension, % (60 mg BID (n = 42)): (2.4) %
Hypertension, no. (60 mg BID (n = 42)): 1
Hypotension, % (60 mg BID (n = 42)): (7.1) %
Hypotension, no. (60 mg BID (n = 42)): 3
Nausea, % (60 mg BID (n = 42)): (2.4) %
Nausea, no. (60 mg BID (n = 42)): 1
Orthostatic hypotension, % (60 mg BID (n = 42)): (9.5) %
Orthostatic hypotension, no. (60 mg BID (n = 42)): 4
Patients with ≥1 TEAE related to study drug, no. (60 mg BID (n = 42)): 11
Patients with ≥1 TEAE, no. (60 mg BID (n = 42)): 28
Patients with ≥1 TESAE, no. (60 mg BID (n = 42)): 5
Rash, no. (60 mg BID (n = 42)): 0
Vomiting, no. (60 mg BID (n = 42)): 0
Adverse event profile other than low blood pressure (60 mg BID versus placebo): generally in favor of the 60 mg group versus placebo
